According to BigSolDB 2.1:

O=C1C=CC(=O)N1c1cc(F)c(Br)c(F)c1
Details | solubility (mole fraction)
in THF, 285 K | 0.0148
in THF, 288.45 K | 0.0162
in THF, 291.55 K | 0.0176
in THF, 294.25 K | 0.0185
in THF, 297.55 K | 0.02
in THF, 302.8 K | 0.0228
in THF, 306.65 K | 0.0249
in THF, 310.8 K | 0.0275
in THF, 315 K | 0.0303
in THF, 318.45 K | 0.0329
in THF, 321.45 K | 0.0355
in THF, 324.65 K | 0.0383
in THF, 327.65 K | 0.0409
in THF, 330.35 K | 0.0437
in THF, 333.65 K | 0.047
in THF, 336.25 K | 0.0497
in acetone, 287.65 K | 0.0071
in acetone, 291.85 K | 0.0081
in acetone, 295.55 K | 0.0092
in acetone, 298.35 K | 0.01
in acetone, 301.25 K | 0.0109
in acetone, 304.55 K | 0.012
in acetone, 307.6 K | 0.0131
in acetone, 309.45 K | 0.0139
in acetone, 311.95 K | 0.0152
in acetone, 313.95 K | 0.0159
in acetone, 316.55 K | 0.0174
in acetone, 319.55 K | 0.019
in acetone, 321.45 K | 0.0202
in acetone, 323.35 K | 0.0214
in acetone, 325.15 K | 0.0225
in acetonitrile, 291.95 K | 0.0028
in acetonitrile, 296.65 K | 0.0033
in acetonitrile, 299.25 K | 0.0037
in acetonitrile, 302.45 K | 0.004
in acetonitrile, 304.85 K | 0.0044
in acetonitrile, 307.15 K | 0.0049
in acetonitrile, 311.55 K | 0.0057
in acetonitrile, 316.95 K | 0.007
in acetonitrile, 320.15 K | 0.0078
in acetonitrile, 325.45 K | 0.0095
in acetonitrile, 328.55 K | 0.0107
in acetonitrile, 332.05 K | 0.0119
in acetonitrile, 338.65 K | 0.0146
in acetonitrile, 341.65 K | 0.0165
in acetonitrile, 347.25 K | 0.0198
in acetonitrile, 350.15 K | 0.0217
in chloroform, 289.25 K | 0.0055
in chloroform, 294.85 K | 0.0066
in chloroform, 296.65 K | 0.0069
in chloroform, 300.85 K | 0.0078
in chloroform, 302.75 K | 0.0082
in chloroform, 305.65 K | 0.0092
in chloroform, 307.45 K | 0.0096
in chloroform, 309.55 K | 0.0101
in chloroform, 311.65 K | 0.0108
in chloroform, 315.35 K | 0.012
in chloroform, 318.65 K | 0.0132
in chloroform, 322.15 K | 0.0146
in chloroform, 324.65 K | 0.0157
in chloroform, 326.45 K | 0.0166
in chloroform, 328.35 K | 0.0176
in chloroform, 330.65 K | 0.0188
in ethanol, 288.65 K | 0.0003
in ethanol, 293.59 K | 0.0003
in ethanol, 299.85 K | 0.0004
in ethanol, 305.72 K | 0.0006
in ethanol, 311.15 K | 0.0008
in ethanol, 318.15 K | 0.0011
in ethanol, 324.35 K | 0.0014
in ethanol, 327.85 K | 0.0016
in ethanol, 332.95 K | 0.002
in ethanol, 336.05 K | 0.0023
in ethanol, 339.65 K | 0.0027
in ethanol, 341.85 K | 0.003
in ethanol, 344.15 K | 0.0033
in ethanol, 346.15 K | 0.0036
in ethanol, 347.75 K | 0.0039
in pyridine, 285.55 K | 0.0116
in pyridine, 289.66 K | 0.0129
in pyridine, 293.95 K | 0.0144
in pyridine, 297.15 K | 0.0154
in pyridine, 300.85 K | 0.0169
in pyridine, 304.65 K | 0.0186
in pyridine, 310.05 K | 0.0214
in pyridine, 315.65 K | 0.0246
in pyridine, 318.65 K | 0.0265
in pyridine, 322.55 K | 0.0291
in pyridine, 328.45 K | 0.0341
in pyridine, 334.15 K | 0.0394
in pyridine, 337.95 K | 0.0432
in pyridine, 340.65 K | 0.0462
in pyridine, 344.85 K | 0.0514
in pyridine, 346.35 K | 0.0533
